Data taken from US10350188B2, “Use of Neu1 sialidase inhibitors in the treatment of cancer” (priority 2011, dated 2019).

Tests used:
PANC-1 cells = experiment: Cell viability of PANC-1 pancreatic cancer cells in culture (MTT or WST-1, 72 hrs); type: cell-based, human; settings: for LD50 PANC-1: oseltamivir phosphate analogues (TD), WST-1, 72 hrs; for Chemo-drug LD50 / Chemo-drug sensitivity with oseltamivir phosphate (fold increase): PANC-1; for Chemo-drug LD50: MTT, 72 hrs
MiaPaCa-2 cells = experiment: Cell viability of MiaPaCa-2 pancreatic cancer cells in culture (MTT or WST-1, 72 hrs); type: cell-based, human; settings: for LD50 MiaPaCa-2: oseltamivir phosphate analogues (TD), WST-1, 72 hrs; for Chemo-drug LD50 / Chemo-drug sensitivity with oseltamivir phosphate (fold increase): MiaPaCa-2; for Chemo-drug LD50: MTT, 72 hrs
Neu1 sialidase = Neu1 sialidase (Mus musculus, UniProt O35657); experiment: LPS-induced Neu1 sialidase activity in live BMA macrophage cells (4-MUNANA); type: cell-based; parameters: endogenous in cells; host or cells: BMA macrophage cells; settings: LPS-induced Neu1 sialidase activity, live BMA macrophage cells
Experimental: TLR-expressing BMA macrophage cells were grown on 12 mm circular glass slides in culture media containing DMEM supplemented with 10% fetal calf serum. […] Fluorescent images were taken after 2-3 minutes using epi-fluorescent microscopy (Zeiss Imager M2, 40× objective).
This recently developed assay was used to detect sialidase activity on the surface of viable cells. […] The inhibitory potency of a series of amide-linked C9 modified DANA (2-deoxy-2,3-dehydro-D-N-acetylneuraminic add) analogues on lipopolysaccharide (LPS)-induced Neu1 sialidase activity was assessed in live BMA macrophage cells.

BxPC-3 cells = experiment: Cell viability of BxPC-3 pancreatic cancer cells in culture (MTT or WST-1, 72 hrs); type: cell-based, human; settings: BxPC-3; for Chemo-drug LD50: MTT, 72 hrs
[1] = co-treatment oseltamivir phosphate 730 μM
[2] = co-treatment oseltamivir phosphate 1460 μM

SMILES: CC(=O)N[C@@H]1CC[C@@](O)(C(=O)[O-])[C@H]2OC(C)(C)O[C@@H]12.[Na+]
- LD50 PANC-1 (PANC-1 cells): >1000 µM
- LD50 MiaPaCa-2 (MiaPaCa-2 cells): 2.1 µM

SMILES: CC(=O)NC[C@H](O)[C@H](O)C1OC(C(=O)O)=CC(O)[C@H]1NC(C)=O (some centres unmarked) [B4]
- IC50 (Neu1 sialidase): 2.98 µM

SMILES: O=c1[nH]cc(F)c(=O)[nH]1 [5-fluoruracil, Fluorouracil]
- Chemo-drug LD50 (BxPC-3 cells; [1]): 0.78 µM
- Chemo-drug LD50 (BxPC-3 cells; [2]): 0.078 µM
- Chemo-drug LD50 (BxPC-3 cells; oseltamivir phosphate 0 μM): 12.5 µM
- Chemo-drug sensitivity with oseltamivir phosphate (fold increase) (BxPC-3 cells; oseltamivir phosphate 730 μM): 16 fold increase
- Chemo-drug sensitivity with oseltamivir phosphate (fold increase) (BxPC-3 cells; oseltamivir phosphate 1460 μM): 160 fold increase
- Chemo-drug LD50 (PANC-1 cells; [1]): 0.8 µM
- Chemo-drug LD50 (PANC-1 cells; [2]): 0.078 µM
- Chemo-drug LD50 (PANC-1 cells; oseltamivir phosphate 0 μM): 3.1 µM
- Chemo-drug sensitivity with oseltamivir phosphate (fold increase) (PANC-1 cells; oseltamivir phosphate 730 μM): 4 fold increase
- Chemo-drug sensitivity with oseltamivir phosphate (fold increase) (PANC-1 cells; oseltamivir phosphate 1460 μM): 40 fold increase
- Chemo-drug LD50 (MiaPaCa-2 cells; [1]): 0.6 µM
- Chemo-drug LD50 (MiaPaCa-2 cells; [2]): 0.078 µM
- Chemo-drug LD50 (MiaPaCa-2 cells; oseltamivir phosphate 0 μM): 2.20 µM
- Chemo-drug sensitivity with oseltamivir phosphate (fold increase) (MiaPaCa-2 cells; oseltamivir phosphate 730 μM): 4 fold increase
- Chemo-drug sensitivity with oseltamivir phosphate (fold increase) (MiaPaCa-2 cells; oseltamivir phosphate 1460 μM): 28 fold increase

SMILES: CC(=O)N[C@H]1[C@H](O)C=C(C(=O)[O-])C[C@@H]1N.[Na+] [A2, Sodium; 4-acetylamino-5-amino-3-hydroxy-cyclohex-1-enecarboxylate]
- LD50 PANC-1 (PANC-1 cells): 0.01 µM
- LD50 MiaPaCa-2 (MiaPaCa-2 cells): 1.97 µM

SMILES: CC(=O)N[C@@H]1C(O)C=C(C(=O)O)OC1[C@@H](O)[C@@H](O)CNC(=O)C1CC1 (some centres unmarked) [B9]
- IC50 (Neu1 sialidase): 1120 µM

SMILES: CCOC1C(C(=O)[O-])=C[C@@H](O)[C@@H](NC(C)=O)[C@@H]1O.[Na+] (some centres unmarked) [A1, Sodium; 4-acetylamino-6-ethoxy-3,5-dihydroxy-cyclohex-1-enecarboxylate]
- LD50 PANC-1 (PANC-1 cells): 848 µM
- LD50 MiaPaCa-2 (MiaPaCa-2 cells): 132 µM

SMILES: CCC(CC)C(=O)NC[C@H](O)[C@H](O)C1OC(C(=O)O)=CC(O)[C@H]1NC(C)=O (some centres unmarked) [B8]
- IC50 (Neu1 sialidase): 1050 µM

SMILES: CCCC(=O)NC[C@H](O)[C@H](O)C1OC(C(=O)O)=CC(O)[C@H]1NC(C)=O (some centres unmarked) [B1]
- IC50 (Neu1 sialidase): 0.0138 µM

SMILES: CC(=O)N[C@@H]1C(O)C=C(C(=O)O)OC1[C@@H](O)[C@@H](O)CNC(=O)C1CCCCC1 (some centres unmarked) [B3]
- IC50 (Neu1 sialidase): 0.0039 µM
